These results are taken from patent US11230540B2, “Substituted triazole derivatives and uses thereof” (Bayer Pharma Aktiengesellschaft, priority 2017, dated 2022).

Structures can show the parent of a compound that is named as a salt.

Assay [1] addresses T1, human V2 receptor (Homo sapiens, UniProt P30518).
T1 construct: expressed in transfected cells; host or cells: CHO K1 (Chinese hamster ovary) expressing firefly luciferase under a CRE-responsive promoter
The assay is described as follows: Cellular in vitro assay for vasopressin receptor activity, V2 receptor cell line (CRE-luciferase). It is filed as cell-based. The settings on record: CHO cell line transfected with human V2 receptor; [Arg8]-vasopressin at EC50 concentration; read-out: IC50 hV2. The protocol:
(§1) B-1. Cellular In Vitro Assay for Determining Vasopressin Receptor Activity
(§2) The identification of agonists and antagonists of the V1a and V2 vasopressin receptors from humans, rats and dogs as well as the quantification of the activity of the compounds of the invention is carried out using recombinant cell lines. These cell lines originally derive from a hamster's ovary epithelial cell (Chinese Hamster Ovary, CHO K1, ATCC: American Type Culture Collection, Manassas, Va. 20108, USA). The test cell lines constitutively express the human, rat or dog V1a or V2 receptors. In case of the […] V1a receptors, cells are also stably transfected with a modified form of the calcium-sensitive photoproteins aequorin (human and rat V1a) or obelin (dog V1a), which, after reconstitution with the cofactor coelenterazine, emit light when there are increases in free calcium concentrations [Rizzuto R, Simpson A W, Brini M, Pozzan T, Nature 358, 325-327 (1992); Illarionov B A, Bondar V S, Illarionova V A, Vysotski E S, Gene 153 (2), 273-274 (1995)]. The resulting vasopressin receptor cells react to stimulation of the recombinantly expressed V1a receptors by intracellular release of calcium ions, which can be quantified by the resulting photoprotein luminescence. The Gs-coupled V2 receptors are stably transfected into cell lines expressing the gene for firefly luciferase under control of a CRE-responsible promoter. Activation of V2 receptors induces the activation of the CRE-responsive promoter via cAMP increase, thereby inducing the expression of firefly luciferase. The light emitted by photoproteins of V1a cell lines as well as the light emitted by firefly luciferase of V2 cell lines corresponds to the activation or inhibition of the respective vasopressin receptor. The bioluminescence of the cell lines is detected using a suitable luminometer [Milligan G, Marshall F, Rees S, Trends in Pharmacological Sciences 17, 235-237 (1996)].
Vasopressin V2 Receptor Cell Lines:
On the day before the assay, the cells are plated out in culture medium (DMEM/F12, 2% FCS, 2 mM glutamine, 10 mM HEPES) in 384-well microtiter plates and kept in a cell incubator (96% humidity, 5% v/v CO2, 37° C.). On the day of the assay, test compounds in various concentrations and the agonist [Arg^8]-vasopressin at EC50 concentration are added together to the wells, and plates are incubated for 3 hours in a cell incubator. Upon addition of the cell lysis reagent Triton™ and the substrate luciferin, luminescence of firefly luciferase is measured in a luminometer.
(§3) Table 1A below lists individual IC50 values for the compounds of the invention (including racemic mixtures as well as separated enantiomers) that were obtained from cell lines transfected with the human V1a or V2 receptor: […]

In assay [2] the target is T2, human V1a receptor (Homo sapiens, UniProt P37288).
T2 construct: expressed in transfected cells; host or cells: CHO K1 (Chinese hamster ovary), also stably transfected with a modified aequorin
The assay can be described thus: Cellular in vitro assay for vasopressin receptor activity, V1a receptor cell line (aequorin luminescence). It is filed as cell-based. The note with it: for IC50: CHO cell line transfected with human V1a receptor, [Arg8]-vasopressin at EC50 concentration, read-out: IC50 hV1a; for ratio IC50 hV2/hV1a: selectivity ratio of the IC50 values hV2/hV1a. The protocol: as §1, §2
Vasopressin V1a Receptor Cell Lines:
On the day before the assay, the cells are plated out in culture medium (DMEM/F12, 2% FCS, 2 mM glutamine, 10 mM HEPES, 5 μg/ml coelenterazine) in 384-well microtiter plates and kept in a cell incubator (96% humidity, 5% v/v CO2, 37° C.). On the day of the assay, test compounds in various concentrations are placed for 10 minutes in the wells of the microtiter plate before the agonist [Arg^8]-vasopressin at EC50 concentration is added. The resulting light signal is measured immediately in a luminometer.
as §3

T1 sequence (P30518 whole entry): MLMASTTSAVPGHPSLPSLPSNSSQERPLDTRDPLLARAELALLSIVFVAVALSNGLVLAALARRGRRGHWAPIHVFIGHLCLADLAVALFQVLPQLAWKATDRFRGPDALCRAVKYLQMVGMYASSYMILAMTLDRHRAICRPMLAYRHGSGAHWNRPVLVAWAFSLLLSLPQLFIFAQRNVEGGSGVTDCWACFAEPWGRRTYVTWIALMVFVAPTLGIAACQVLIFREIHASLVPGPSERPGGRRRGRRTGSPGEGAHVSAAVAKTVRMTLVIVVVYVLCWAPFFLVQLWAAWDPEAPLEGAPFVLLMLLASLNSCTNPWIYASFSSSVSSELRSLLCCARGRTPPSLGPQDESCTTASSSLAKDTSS
T2 sequence (P37288 whole entry): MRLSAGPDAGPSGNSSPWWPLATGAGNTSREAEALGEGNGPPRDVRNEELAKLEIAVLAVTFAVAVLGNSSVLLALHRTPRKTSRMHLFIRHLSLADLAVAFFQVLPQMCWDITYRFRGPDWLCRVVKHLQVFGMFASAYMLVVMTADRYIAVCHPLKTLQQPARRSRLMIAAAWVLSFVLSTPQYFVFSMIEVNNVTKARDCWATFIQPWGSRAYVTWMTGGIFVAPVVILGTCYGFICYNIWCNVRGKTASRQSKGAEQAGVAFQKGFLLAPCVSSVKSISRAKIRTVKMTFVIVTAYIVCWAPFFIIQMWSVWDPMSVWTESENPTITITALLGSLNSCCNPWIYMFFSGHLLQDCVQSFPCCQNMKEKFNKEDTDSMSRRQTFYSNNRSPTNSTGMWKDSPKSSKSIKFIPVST

Turning to `O=CN1CCC(NC(=O)c2nc(Cn3nc(-c4ccc(Cl)cc4)n(C[C@H](O)C(F)(F)F)c3=O)nn2-c2cnccc2Cl)C1` (mixture of isomers) [Example 13, 3-({3-(4-Chlorophenyl)-5-oxo-4-[(2S)-3,3,3-trifluoro-2-hydroxypropyl]-4,5-dihydro-1H-1,2,4-triazol-1-yl}methyl)-1-(4-chloropyridin-3-yl)-N-[1-formylpyrrolidin-3-yl]-1H-1,2,4-triazole-5-carboxamide], the IC50 in assay [1] is 285 nM; in assay [2] it was 1.5 nM. The “ratio IC50 hV2/hV1a” value in assay [2] is on record as 190.0.

Regarding `O=CN1CCC(NC(=O)c2nc(Cn3nc(-c4ccc(Cl)cc4)n(C[C@H](O)C(F)(F)F)c3=O)nn2-c2cccnc2Cl)C1` (mixture of isomers) [Example 14, 3-({3-(4-Chlorophenyl)-5-oxo-4-[(2S)-3,3,3-trifluoro-2-hydroxypropyl]-4,5-dihydro-1H-1,2,4-triazol-1-yl}methyl)-1-(2-chloropyridin-3-yl)-N-[1-formylpyrrolidin-3-yl]-1H-1,2,4-triazole-5-carboxamide], the IC50 in assay [1] amounted to 315 nM; in assay [2] it was 108 nM. The “ratio IC50 hV2/hV1a” value in assay [2] is 2.9.

Turning to `CC1(O)CCN(C(=O)c2nc(Cn3nc(-c4ccc(Cl)cc4)n(C[C@H](O)C(F)(F)F)c3=O)nn2CCC(F)(F)F)C1` (mixture of isomers) [Example 22, 5-(4-Chlorophenyl)-2-{[5-{[3-hydroxy-3-methylpyrrolidin-1-yl]carbonyl}-1-(3,3,3-trifluoropropyl)-1H-1,2,4-triazol-3-yl]methyl}-4-[(2S)-3,3,3-trifluoro-2-hydroxypropyl]-2,4-dihydro-3H-1,2,4-triazol-3-one], the values for the IC50 in assay [1] and in assay [2] were 435 nM and 290 nM, respectively. Further, the “ratio IC50 hV2/hV1a” value in assay [2] is recorded as 1.5.

On to `O=C(c1nc(Cn2nc(-c3ccc(Cl)cc3)n(C[C@H](O)C(F)(F)F)c2=O)nn1CCC(F)(F)F)N1CCNC(C(F)(F)F)C1` (mixture of isomers) [Example 25, 5-(4-Chlorophenyl)-4-[(2S)-3,3,3-trifluoro-2-hydroxypropyl]-2-{[5-{[3-(trifluoromethyl)piperazin-1-yl]carbonyl}-1-(3,3,3-trifluoropropyl)-1H-1,2,4-triazol-3-yl]methyl}-2,4-dihydro-3H-1,2,4-triazol-3-one], for which, in assay [1], the IC50 was found to be 170 nM. For the same compound, in assay [2], the IC50 came out at 35 nM and the “ratio IC50 hV2/hV1a” value is reported as 4.9.

`NC(CNC(=O)c1nc(Cn2nc(-c3ccc(Cl)cc3)n(C[C@H](O)C(F)(F)F)c2=O)nn1-c1ncccc1C(F)(F)F)C(F)(F)F` (mixture of isomers) [Example 51, N-(2-Amino-3,3,3-trifluoropropyl)-3-({3-(4-chlorophenyl)-5-oxo-4-[(2S)-3,3,3-trifluoro-2-hydroxypropyl]-4,5-dihydro-1H-1,2,4-triazol-1-yl}methyl)-1-[3-(trifluoromethyl)pyridin-2-yl]-1H1,2,4-triazole-5-carboxamide hydrochloride]: the IC50 in assay [1] turned out to be 1190 nM. In assay [2], the IC50 turned out to be 135 nM and the “ratio IC50 hV2/hV1a” value is reported as 8.8.

Consider `CC1(O)CCN(C(=O)c2nc(Cn3nc(-c4ccc(Cl)cc4)n(C[C@H](O)C(F)(F)F)c3=O)nn2CCC(F)(F)F)C1` (single isomer, unassigned) [Example 23], for which the IC50 in assay [1] amounted to 245 nM; in assay [2], 285 nM. For the same compound, the “ratio IC50 hV2/hV1a” value in assay [2] was 0.9.

As for `CC1(O)CCN(C(=O)c2nc(Cn3nc(-c4ccc(Cl)cc4)n(C[C@H](O)C(F)(F)F)c3=O)nn2CCC(F)(F)F)C1` (single isomer, unassigned) [Example 24], in assay [1], the IC50 is 300 nM. Further, in assay [2], the IC50 was 185 nM and the “ratio IC50 hV2/hV1a” value was 1.6.

For orientation: IC50 means the concentration at which inhibition is half-maximal.
